{"source": "patent US20100179158A1", "about": "“INHIBITORS OF CYCLIC AMP PHOSPHODIESTERASES” (priority 2007, published 2010)", "key": {"PDE2A [1]": {"target": "T1, PDE2A (Mus musculus, UniProt Q922S4)", "T1 construct": "targets used in the assays are full-length proteins (as opposed to simply the catalytic domain); expressed in transfected cells; host or cells: Schizosaccharomyces pombe strains LWP367 and LWP371", "T1 sequence (Q922S4 1-939)": "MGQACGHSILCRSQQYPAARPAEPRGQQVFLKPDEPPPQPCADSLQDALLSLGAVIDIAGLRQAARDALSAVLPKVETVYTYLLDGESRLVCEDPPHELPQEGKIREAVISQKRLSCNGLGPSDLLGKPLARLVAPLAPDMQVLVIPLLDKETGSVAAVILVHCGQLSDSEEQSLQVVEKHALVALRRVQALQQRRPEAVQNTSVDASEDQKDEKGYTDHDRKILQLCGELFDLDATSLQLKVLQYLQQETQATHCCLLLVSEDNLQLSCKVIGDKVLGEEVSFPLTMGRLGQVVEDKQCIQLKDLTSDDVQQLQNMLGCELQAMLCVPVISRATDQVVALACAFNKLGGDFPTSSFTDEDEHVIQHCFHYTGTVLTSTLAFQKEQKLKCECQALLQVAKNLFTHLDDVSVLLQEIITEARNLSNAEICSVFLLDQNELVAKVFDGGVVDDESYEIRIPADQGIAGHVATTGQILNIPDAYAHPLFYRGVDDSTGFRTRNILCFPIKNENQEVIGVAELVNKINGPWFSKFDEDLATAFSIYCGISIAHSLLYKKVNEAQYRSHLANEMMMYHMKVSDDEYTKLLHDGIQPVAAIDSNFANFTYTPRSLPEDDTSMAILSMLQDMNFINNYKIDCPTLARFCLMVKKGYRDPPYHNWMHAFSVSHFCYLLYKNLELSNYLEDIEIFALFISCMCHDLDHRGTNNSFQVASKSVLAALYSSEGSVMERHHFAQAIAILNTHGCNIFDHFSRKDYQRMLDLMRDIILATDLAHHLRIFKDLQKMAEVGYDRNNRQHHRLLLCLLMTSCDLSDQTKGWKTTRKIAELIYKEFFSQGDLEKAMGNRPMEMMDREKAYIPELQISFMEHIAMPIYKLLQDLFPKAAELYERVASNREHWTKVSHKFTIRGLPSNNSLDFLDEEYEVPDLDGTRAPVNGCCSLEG", "test": "fbp1-lacZ β-galactosidase assay, PDE2A strain LWP367", "assay_type": "cell-based, murine", "conditions": "specific activity per milligram of soluble protein, average ± SD", "procedure": "(§1) β-galactosidase assays and characterization of 5FOA-sensitivity were carried out as previously described^10. cAMP assays were performed on exponential phase cells grown in EMM complete medium (3% glucose), using the Assay Designs cAMP EIA kit, according to manufacturer's instructions (Assay Designs, Ann arbor, MI).\n(§2) The effect of known PDE inhibitors on the expression of the fbp1-lacZ fusion in murine PDE-expressing strains was tested. […] For Table 4 β-galactosidase activity was determined from 3 to 4 independent exponential phase cultures. The average±SD represents specific activity per milligram of soluble protein."}, "PDE2A [2]": {"target": "T1, PDE2A", "test": "cAMP assay in yeast strain LWP371 expressing PDE2A", "assay_type": "cell-based, murine", "conditions": "20 μM EHNA as compared to 200 μM, one-hour time point", "procedure": "as §1\n(§3) Thus, PDE inhibition can be indirectly quantitated by measuring the effect of a compound on cAMP levels in target yeast strains."}, "Cgs2": {"target": "T2, Cgs2 (Schizosaccharomyces pombe, UniProt P36599)", "T2 construct": "the wild-type S. pombe Cgs2^+ PDE; endogenous in cells; host or cells: Schizosaccharomyces pombe strain CHP861", "T2 sequence (P36599 1-346)": "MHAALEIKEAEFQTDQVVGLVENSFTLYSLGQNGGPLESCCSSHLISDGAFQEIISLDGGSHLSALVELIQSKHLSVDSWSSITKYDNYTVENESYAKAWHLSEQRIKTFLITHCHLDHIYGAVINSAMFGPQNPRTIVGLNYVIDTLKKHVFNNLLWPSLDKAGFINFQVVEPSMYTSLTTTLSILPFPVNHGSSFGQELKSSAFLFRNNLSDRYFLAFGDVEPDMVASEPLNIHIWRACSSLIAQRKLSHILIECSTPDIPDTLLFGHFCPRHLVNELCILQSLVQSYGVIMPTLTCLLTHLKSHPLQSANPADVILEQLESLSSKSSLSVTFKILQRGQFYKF", "test": "fbp1-lacZ β-galactosidase assay, Cgs2 strain CHP861", "assay_type": "cell-based", "conditions": "specific activity per milligram of soluble protein, average ± SD", "procedure": "as §1, §2"}, "PDE8A [3]": {"target": "T3, PDE8A (Mus musculus, UniProt O88502)", "T3 construct": "targets used in the assays are full-length proteins (as opposed to simply the catalytic domain); expressed in transfected cells; host or cells: Schizosaccharomyces pombe strains DDP13 and CHP1141", "T3 sequence (O88502 1-823)": "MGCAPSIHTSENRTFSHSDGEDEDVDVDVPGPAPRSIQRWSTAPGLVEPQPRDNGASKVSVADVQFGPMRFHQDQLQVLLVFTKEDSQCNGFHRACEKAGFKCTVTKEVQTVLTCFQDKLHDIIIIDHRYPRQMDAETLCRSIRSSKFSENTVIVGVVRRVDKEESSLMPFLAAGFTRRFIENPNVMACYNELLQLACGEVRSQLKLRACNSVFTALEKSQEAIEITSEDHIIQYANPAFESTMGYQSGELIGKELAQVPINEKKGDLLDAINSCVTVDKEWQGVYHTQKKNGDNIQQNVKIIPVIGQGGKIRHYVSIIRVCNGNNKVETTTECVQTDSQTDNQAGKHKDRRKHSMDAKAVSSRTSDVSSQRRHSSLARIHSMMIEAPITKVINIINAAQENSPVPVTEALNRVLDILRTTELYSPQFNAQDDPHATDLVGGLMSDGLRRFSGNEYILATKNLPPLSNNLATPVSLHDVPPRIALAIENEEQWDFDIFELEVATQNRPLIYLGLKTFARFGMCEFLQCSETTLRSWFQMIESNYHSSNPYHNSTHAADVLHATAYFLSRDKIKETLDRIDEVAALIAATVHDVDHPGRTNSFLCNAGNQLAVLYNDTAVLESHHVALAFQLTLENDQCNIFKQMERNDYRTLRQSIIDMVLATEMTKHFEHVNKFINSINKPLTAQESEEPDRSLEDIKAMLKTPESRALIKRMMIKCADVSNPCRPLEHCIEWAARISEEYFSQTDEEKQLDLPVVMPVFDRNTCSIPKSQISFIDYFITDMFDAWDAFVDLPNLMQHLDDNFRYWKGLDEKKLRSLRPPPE", "test": "fbp1-lacZ β-galactosidase assay, PDE8A strain DDP13", "assay_type": "cell-based, murine", "conditions": "specific activity per milligram of soluble protein, average ± SD", "procedure": "as §1, §2"}, "PDE8A [4]": {"target": "T3, PDE8A", "test": "cAMP assay in yeast strain CHP1141 expressing PDE8A", "assay_type": "cell-based, murine", "conditions": "rolipram 20 and 200 μM, one-hour time point", "procedure": "as §1, §3"}, "[5]": {"system": "PDE2A, PDE4A, PDE4B, Cgs2", "test": "High throughput 5FOA growth screens of bioactive libraries", "assay_type": "cell-based, murine; Schizosaccharomyces pombe", "conditions": "average 20 μM; composite Z score cut-off ≧8.53", "procedure": "High throughput drug screens were carried out at the Broad Institute's Chemical Biology Program screening facility (Broad Institute, Cambridge, Mass.). Depending upon the strain, cultures were pregrown to exponential phase in EMM complete medium containing from 0.5 to 2.5 mM cAMP to repress fbp1-ura4 transcription. […] Starting cell concentrations ranged from 0.5×10^5 to 4×10^5 cells/ml depending on the screening strain. […] Other positive control dishes contained 5 mM cAMP in the 5FOA medium. Cultures were grown for 48 hours at 30° C., sealed in an airtight container with moist paper towels to prevent evaporation. Optical densities (OD600) of cultures were measured using a microplate reader. Bioinformatic analysis of the results to determine composite Z scores was performed as previously described^30, 31."}, "PDE7A": {"target": "T4, PDE7A (Homo sapiens, UniProt Q13946)", "T4 construct": "targets used in the assays are full-length proteins (as opposed to simply the catalytic domain); expressed in transfected cells; host or cells: Schizosaccharomyces pombe, gene integrated at the cgs2 locus", "T4 sequence (Q13946 whole entry, the tested form may be a part)": "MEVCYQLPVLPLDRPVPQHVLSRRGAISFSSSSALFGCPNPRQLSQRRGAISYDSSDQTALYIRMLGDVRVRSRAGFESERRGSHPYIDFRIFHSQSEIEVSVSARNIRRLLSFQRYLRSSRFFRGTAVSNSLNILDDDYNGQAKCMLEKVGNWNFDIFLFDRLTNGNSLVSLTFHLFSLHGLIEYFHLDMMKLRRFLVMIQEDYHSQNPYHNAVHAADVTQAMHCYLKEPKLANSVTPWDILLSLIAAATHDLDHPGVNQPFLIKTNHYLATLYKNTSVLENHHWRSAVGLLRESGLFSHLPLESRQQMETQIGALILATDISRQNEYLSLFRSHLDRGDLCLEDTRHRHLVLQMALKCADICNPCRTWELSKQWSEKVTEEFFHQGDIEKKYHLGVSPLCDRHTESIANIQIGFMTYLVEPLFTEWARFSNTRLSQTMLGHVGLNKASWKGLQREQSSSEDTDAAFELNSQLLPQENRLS", "test": "cAMP assay in yeast strain expressing PDE7A", "assay_type": "cell-based"}, "[6]": {"system": "PDE4A, PDE4B, PDE4D, PDE7A", "test": "Overall PDE inhibitor profile from the yeast assays (table footnotes, summary)", "assay_type": "cell-based", "text": "PDE inhibitors were identified using methods described herein, such as high throughput drug screens on genetically engineered fission yeast strains that express drug targets (e.g., PDE4A and/or PDE4B, which are anti-inflammatory targets). PDE inhibitors were identified based on their ability to stimulate growth and compounds were identified because they were effective in live cells. In addition, targets used in the assays are full-length proteins (as opposed to simply the catalytic domain) and the assay used included a built-in toxicity test, permeability test and stability test. The inhibitors identified display a very high degree of target specificity. Compounds identified include inhibitors that act on two of three PDE4 family enzymes and inhibitors that act on combinations of PDE4 and PDE7 strains. […] Limited inhibition of PDE4D by a PDE inhibitor is desirable, in view of the fact that inhibition of PDE4D causes emesis and cardiac arrhythmias. Subtype specificity was confirmed by means of cAMP assays.\nCells were pregrown in EMM medium [MP Biomedicals (Solon, OH), 3% glucose, filter-sterilized to avoid carmelization, which would introduce variability into the optical density of the medium] containing from 0 mM to 2.5 mM cAMP (or either 0.5 mM or 1.0 mM cGMP). This was to repress expression of the fbp1-ura4 reporter prior to exposure of cells to 5FOA medium. Cells were grown at 30° C. to exponential phase (approximately 10^7 cells/ml). Cells were collected by centrifugation and resuspended in 5FOA medium, and 25 μl were transferred to 384-well microtiter dishes (untreated, with flat clear bottoms) that had been pre-filled with 25 μl 5FOA medium and pre-pinned with 100 nl of compounds (stock solutions were generally 10 mM). Starting cell concentrations ranged from 0.5×10^5 to 4×10^5 cells/ml depending on the screening strain. […] Other positive control dishes contained 5 mM cAMP in the 5FOA medium for PDEs that lack appropriate control compounds. Cultures were grown for 48 hours at 30° C., sealed in an airtight container with moist paper towels to prevent evaporation. Optical densities (OD600) of cultures were measured using a microplate reader. Bioinformatic analysis of the results to determine composite Z scores was performed as previously described (1, 3)."}}, "data": [{"molecule": "CCCCCC[C@@H]([C@@H](C)O)n1cnc2c(N)ncnc21", "note": "(racemic) [EHNA, erythro-9-(2-hydroxy-3-nonyl)adenine]", "values": [{"measurement": "β-galactosidase activity, PDE2A strain", "setting": "PDE2A [1]; 5 μM EHNA", "result": "473 ± 19"}, {"measurement": "β-galactosidase activity, PDE2A strain", "setting": "PDE2A [1]; 20 μM EHNA", "result": "197 ± 51"}, {"measurement": "β-galactosidase activity, PDE2A strain", "setting": "PDE2A [1]; 200 μM EHNA", "result": "45 ± 3"}, {"measurement": "PDE2A inhibition judged by cAMP levels", "setting": "PDE2A [2]", "result": "partial inhibition"}]}, {"molecule": "COc1ccc(C2CNC(=O)C2)cc1OC1CCCC1", "note": "(stereo not drawn) [Rolipram, rolipram]", "values": [{"measurement": "β-galactosidase activity, Cgs2 strain", "setting": "Cgs2; 50 μM Rolipram", "result": "1807 ± 446"}, {"measurement": "β-galactosidase activity, Cgs2 strain", "setting": "Cgs2; 100 μM Rolipram", "result": "1784 ± 429"}, {"measurement": "β-galactosidase activity, PDE8A strain", "setting": "PDE8A [3]; 50 μM Rolipram", "result": "253 ± 46"}, {"measurement": "β-galactosidase activity, PDE8A strain", "setting": "PDE8A [3]; 100 μM Rolipram", "result": "237 ± 67"}, {"measurement": "cAMP levels in PDE8A strain on treatment", "setting": "PDE8A [4]", "result": "completely insensitive"}, {"measurement": "Result in high throughput screens for 5FOA-resistant growth", "setting": "[5]", "result": "only affected the PDE4A- and PDE4B-expressing strains"}]}, {"molecule": "COc1ccc2c(c1)C1(C)CCC(=O)CC1CC2", "note": "(single isomer, unassigned) [Compound 11]", "values": [{"measurement": "cAMP Response (%BRL50481), PDE 7A", "setting": "PDE7A", "result": 89.00, "unit": "%BRL50481"}, {"measurement": "PDE inhibitor profile in words (table footnote / summary)", "setting": "[6]", "result": "(3) Strong PDE7A inhibitor"}]}]}
